The target in this assay is T1, Ba/F3 cell EGFR Exon20 ins NPH (Homo sapiens, UniProt P00533, INS773NPH).
T1 construct: expressed in transfected cells; host or cells: Ba/F3
The experiment in a line: Ba/F3 cell proliferation suppression, EGFR Exon20 ins NPH. Type of assay: cell-based. As to conditions: GI50 class; Ba/F3 cell line with NPH inserted at Exon20 of EGFR; 72 hours. The gist of the method:
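After 72 h compound exposure (twelve 3-fold steps, 0.3 nM–50 um final), live cells were measured by CellTiter-Glo luminescence and growth expressed as % of control to derive GI50. Cells were seeded at 3000–5000 per well a day earlier; Ba/F3 medium contained IL-3; three repeats.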
For the molecule `C=CC(=O)Nc1cc(Nc2cc(N3OCC[C@@H]3c3ccccc3)ncn2)c(OC)cc1N1CCC(N2CCN(C(C)=O)CC2)CC1` [Example 284, N-(2-(4-(4-acetylpiperazine-1-yl)piperidine-1-yl)-4-methoxy-5-((6-((R)-3-phenylisoxazolidine-2-yl)pyrimidine-4-yl)amino)phenyl) acrylamide], the “Ba/F3 (NPH) Activity” value was “A (GI50 < 50 nM)”. As to `C=CC(=O)Nc1cc(Nc2cc(N3OCC[C@@H]3c3ccc(F)c(F)c3)ncn2)c(OC)cc1N1CCC(N2CCN(C)CC2)CC1` [compound 502, N-(5-((6-((R)-3-(3,4-difluorophenyl)isoxazolidine-2-yl)pyrimidine-4-yl)amino)-4-methoxy-2-(4-(4-methylpiperazine-1-yl)piperidine-1-yl)phenyl) acrylamide], the “Ba/F3 (NPH) Activity” value is reported as “A (GI50 < 50 nM)”. As for `C=CC(=O)Nc1cc(Nc2cc(N3OCC[C@@H]3c3ccc(Cl)c(Cl)c3F)ncn2)c(OC)cc1N1CCC(N2CC[C@@H](N(C)C)C2)CC1` [compound 771, N-(5-((6-((R)-3-(3,4-dichloro-2-fluorophenyl)isoxazolidine-2-yl)pyrimidine-4-yl)amino)-2-(4-((R)-3-(dimethylamino)pyrolidine-1-yl)piperidine-1-yl)-4-methoxyphenyl) acrylamide], the “Ba/F3 (NPH) Activity” value is listed as “B (50 nM ≤ GI50 < 500 nM)”. For `C#Cc1cccc([C@H]2CCON2c2cc(Nc3cc(NC(=O)C=C)c(N4CCC(N5CCN(CC=C)CC5)CC4)cc3OC)ncn2)c1` [Example 216, N-(2-(4-(4-allylpiperazine-1-yl)piperidine-1-yl)-5-((6-((R)-3-(3-ethynylphenyl)isoxazolidine-2-yl)pyrimidine-4-yl)amino)-4-methoxyphenyl) acrylamide], the “Ba/F3 (NPH) Activity” value was “A (GI50 < 50 nM)”.

For `C=CC(=O)Nc1cc(Nc2cc(N3OCC[C@@H]3c3ccc(F)cc3F)ncn2)c(OC)cc1N(C)CCN(C)C` [compound 350, N-(5-((6-((R)-3-(2,4-difluorophenyl)isoxazolidine-2-yl)pyrimidine-4-yl)amino)-2-((2-(dimethylamino)ethyl)(methyl)amino)-4-methoxyphenyl) acrylamide], the “Ba/F3 (NPH) Activity” value is “A (GI50 < 50 nM)”. For the molecule `C=CC(=O)Nc1cc(Nc2cc(N3OCC[C@@H]3c3cc(F)cc(Cl)c3)ncn2)c(OC)cc1N1CCC(N2CCN(C3CC3)C[C@@H]2C)CC1` [Example 160, N-(5-((6-((R)-3-(3-chloro-5-fluorophenyl)isoxazolidine-2-yl)pyrimidine-4-yl)amino)-2-(4-((S)-4-cyclopropyl-2-methylpiperazine-1-yl)piperidine-1-yl)-4-methoxyphenyl) acrylamide], the “Ba/F3 (NPH) Activity” value is “A (GI50 < 50 nM)”. As to `C=CC(=O)Nc1cc(Nc2cc(N3OCC[C@@H]3Cc3ccccc3)ncn2)c(OC)cc1N1CCN(C2CC2)CC1` [compound 952, N-(5-((6-((S)-3-benzylisoxazolidine-2-yl)pyrimidine-4-yl)amino)-2-(4-cyclopropylpiperazine-1-yl)-4-methoxyphenyl) acrylamide], the “Ba/F3 (NPH) Activity” value is reported as “A (GI50 < 50 nM)”. As for `C=CC(=O)Nc1cc(Nc2cc(N3OCC[C@@H]3c3ccc(F)cc3F)ncn2)c(OC)cc1N1CCN(C2COC2)CC1` [compound 383, N-(5-((6-((R)-3-(2,4-difluorophenyl)isoxazolidine-2-yl)pyrimidine-4-yl)amino)-4-methoxy-2-(4-(oxetane-3-yl)piperazine-1-yl)phenyl)acrylamide], the “Ba/F3 (NPH) Activity” value is recorded as “A (GI50 < 50 nM)”. Take `C=CC(=O)Nc1cc(Nc2cc(N3OCC[C@@H]3c3cc(F)cc(F)c3)ncn2)c(OC)cc1OCCC(C)(C)OC` [compound 495, N-(5-((6-((R)-3-(3,5-difluorophenyl)isoxazolidine-2-yl)pyrimidine-4-yl)amino)-4-methoxy-2-(3-methoxy-3-methylbutoxy)phenyl) acrylamide]: the “Ba/F3 (NPH) Activity” value is on record as “A (GI50 < 50 nM)”.

With `C=CC(=O)Nc1cc(Nc2cc(N3OCC[C@@H]3c3cc(F)cc(Cl)c3)ncn2)c(OC)cc1N(C)CCN(C)C` [compound 538, N-(5-((6-((R)-3-(3-chloro-5-fluorophenyl)isoxazolidine-2-yl)pyrimidine-4-yl)amino)-2-((2-(dimethylamino)ethyl)(methyl)amino)-4-methoxyphenyl)acrylamide], the “Ba/F3 (NPH) Activity” value is “A (GI50 < 50 nM)”. As for `C=CC(=O)Nc1cc(Nc2cc(N3OCC[C@@H]3c3cc(F)cc(Cl)c3)ncn2)c(OC)cc1N1CCN(C2COC2)CC1` [compound 597, N-(5-((6-((R)-3-(3-chloro-5-fluorophenyl)isoxazolidine-2-yl)pyrimidine-4-yl)amino)-4-methoxy-2-(4-(oxetane-3-yl)piperazine-1-yl)phenyl) acrylamide], the “Ba/F3 (NPH) Activity” value was “A (GI50 < 50 nM)”. For the molecule `C=CC(=O)Nc1cc(Nc2cc(N3OCC[C@@H]3c3cccc(C#N)c3)ncn2)c(OC)cc1N1CCC(N2CCN(C3CCC3)CC2)CC1` [Example 183, N-(5-((6-((R)-3-(3-cyanophenyl)isoxazolidine-2-yl)pyrimidine-4-yl)amino)-2-(4-(4-cyclobutylpiperazine-1-yl)piperidine-1-yl)-4-methoxyphenyl) acrylamide], the “Ba/F3 (NPH) Activity” value is on record as “A (GI50 < 50 nM)”. As to `C=CC(=O)Nc1cc(Nc2cc(N3OCC[C@@H]3c3ccc(Cl)c(Cl)c3F)ncn2)c(OC)cc1N1CCC(N2C[C@H]3C[C@@H]2CO3)CC1` [Example 268, N-(2-(4-((1R,4R)-2-oxa-5-azabicyclo[2.2.1]heptane-5-yl)piperidine-1-yl)-5-((6-((R)-3-(3,4-dichloro-2-fluorophenyl)isoxazolidine-2-yl)pyrimidine-4-yl)amino)-4-methoxyphenyl) acrylamide], the “Ba/F3 (NPH) Activity” value is “A (GI50 < 50 nM)”.

As to `C=CC(=O)Nc1cc(Nc2cc(N3OCC[C@@H]3c3ccccc3)ncn2)c(OC)cc1N1CCC(N2CCN(C3CC3)CC2)CC1` [Example 56, N-(2-(4-(4-cyclopropylpiperazine-1-yl)piperidine-1-yl)-4-methoxy-5-((6-((R)-3-phenylisoxazolidine-2-yl)pyrimidine-4-yl)amino)phenyl) acrylamide], the “Ba/F3 (NPH) Activity” value is reported as “A (GI50 < 50 nM)”. On to `C=CC(=O)Nc1cc(Nc2cc(N3OCC[C@@H]3c3cc(F)cc(F)c3)ncn2)c(OC)cc1N1CCC(N2CCN(C)C[C@H]2C)CC1` [compound 761, N-(5-((6-((R)-3-(3,5-difluorophenyl)isoxazolidine-2-yl)pyrimidine-4-yl)amino)-2-(4-((R)-2,4-dimethylpiperazine-1-yl)piperidine-1-yl)-4-methoxyphenyl) acrylamide], for which the “Ba/F3 (NPH) Activity” value is listed as “A (GI50 < 50 nM)”. With `C=CC(=O)Nc1cc(Nc2cc(N3OCC[C@@H]3c3ccc(C)nc3)ncn2)c(OC)cc1N1CCN(C2CCCC2)CC1` [Example 225, N-(2-(4-cyclopentylpiperazine-1-yl)-4-methoxy-5-((6-((R)-3-(6-methylpyridine-3-yl)isoxazolidine-2-yl)pyrimidine-4-yl)amino)phenyl)acrylamide], the “Ba/F3 (NPH) Activity” value was “B (50 nM ≤ GI50 < 500 nM)”. To `C=CC(=O)Nc1cc(Nc2cc(N3OCC[C@@H]3c3ccc(F)cc3F)ncn2)c(OC)cc1N1CCC(N2C[C@@H]3C[C@H]2CO3)CC1` [compound 381, N-(2-(4-((1S,4S)-2-oxa-5-azabicyclo[2.2.1]heptane-5-yl)piperidine-1-yl)-5-((6-((R)-3-(2,4-difluorophenyl)isoxazolidine-2-yl)pyrimidine-4-yl)amino)-4-methoxyphenyl) acrylamide] belongs “A (GI50 < 50 nM)”.
